Values after ≈ are worked out from the molar mass of the structure shown. Blank lines part the entries; values can stand above or below the compound they belong to.
What was measured:
[1] = Potentiometric titration profile; format: physicochemical; conditions: methylcellosolve/water 4:1, titration with 0.01N NaOH after excess of 0.01N HCl
Solubility = format: physicochemical
S. aureus L 1524 = test: MIC against clinical isolate methicillin-resistant staphylococci; format: cell-based; set-up: unit not given here; conditions: S. aureus L 1524, clinical isolate methicillin-resistant
Description: (§1) The in vitro antibacterial activity of deglucoteicoplanin was determined using the two-fold dilution method in microtiter system. Todd-Hewitt broth (Difco) was used for streptococci and Isosensitest broth (Oxoid) for staphylococci and gram-negative bacteria. Overnight broth cultures were diluted so that the final inoculum was about 10^4 colony-forming units per ml (cfu/ml).

S. epidermidis 785 = test: as above; format: cell-based; set-up: unit not given here; conditions: S. epidermidis 785, clinical isolate methicillin-resistant
Description: as §1

S. aureus L 1526 = test: as above; format: cell-based; set-up: unit not given here; conditions: S. aureus L 1526, clinical isolate methicillin-resistant
Description: as §1

S. epidermidis 1142 = test: as above; format: cell-based; set-up: unit not given here; conditions: S. epidermidis 1142, clinical isolate methicillin-resistant
Description: as §1

S. epidermidis 1372 = test: as above; format: cell-based; set-up: unit not given here; conditions: S. epidermidis 1372, clinical isolate methicillin-resistant
Description: as §1

S. epidermidis 835 = test: as above; format: cell-based; set-up: unit not given here; conditions: S. epidermidis 835, clinical isolate methicillin-resistant
Description: as §1

S. aureus L 1096 = test: as above; format: cell-based; set-up: unit not given here; conditions: S. aureus L 1096, clinical isolate methicillin-resistant
Description: as §1

S. aureus L 1097 = test: as above; format: cell-based; set-up: unit not given here; conditions: S. aureus L 1097, clinical isolate methicillin-resistant
Description: as §1

S. epidermidis 1378 = test: as above; format: cell-based; set-up: unit not given here; conditions: S. epidermidis 1378, clinical isolate methicillin-resistant
Description: as §1

[2] = tested on: staphylococci (S. aureus, S. epidermidis); test: In vitro antibacterial activity against staphylococci (summary); format: cell-based; conditions: in words
Description: as §1

[3] = tested on: Staphylococcus aureus Tour; test: In vitro antibacterial activity, two-fold dilution method in microtiter system (MIC); format: cell-based
Description: The in vitro antibacterial activity of deglucoteicoplanin was determined using the two-fold dilution method in microtiter system. Todd-Hewitt broth (Difco) was used for streptococci and Isosensitest broth (Oxoid) for staphylococci and gram-negative bacteria. […]

S. pyogenes = test: Experimental infection in mice infected with S. pyogenes; format: in vivo; conditions: subcutaneous administration
[4] = tested on: clinical isolate methicillin-resistant staphylococci (S. aureus, S. epidermidis); test: In vitro antibacterial activity against methicillin-resistant staphylococci (summary); format: cell-based; conditions: in words
Description: as §1

[5] = tested on: Proteus vulgaris X 19 H ATCC 881; test: In vitro antibacterial activity, two-fold dilution method in microtiter system (MIC); format: cell-based
Description: as §1

[6] = tested on: Escherichia coli SKF 12140; test: as above; format: cell-based
Description: as §1

[7] = tested on: Pseudomonas aeruginosa ATCC 10145; test: as above; format: cell-based
Description: as §1

[8] = tested on: Staphylococcus epidermidis ATCC 12228; test: as above; format: cell-based
Description: as §1

[9] = tested on: Staphylococcus aureus ATCC 6538; test: as above; format: cell-based; conditions: inoculum about 10^4 cfu/ml, 18-24 hours at 37° C.
Description: as §1

[10] = tested on: Streptococcus pneumoniae UC 41; test: as above; format: cell-based
Description: as §1

[11] = tested on: Streptococcus pyogenes C 203 SFK 13400; test: as above; format: cell-based
Description: as §1

[12] = tested on: Streptococcus faecalis ATCC 7080; test: as above; format: cell-based
Description: as §1

pH1/2 value, third titration slope ([1]; five equivalents): 11 | pH1/2 value, first titration slope ([1]; one equivalent): 5.0 | pH1/2 value, second titration slope ([1]; one equivalent): 7.0 | solubility (Solubility; in methanol): slightly soluble | solubility (Solubility; in n-hexane, ethyl ether and acetone): almost insoluble | solubility (Solubility; in water at pH>8.0, in dimethylformamide, dimethylsulfoxide, propyleneglycol and methylcellosolve): freely soluble
Compound: CC(=O)N[C@@H]1[C@@H](O[C@H]2c3ccc(c(Cl)c3)Oc3cc4cc(c3O)Oc3ccc(cc3Cl)C[C@@H]3NC(=O)[C@@H](N)c5ccc(O)c(c5)Oc5cc(O)cc(c5)[C@@H](NC3=O)C(=O)N[C@@H]4C(=O)N[C@@H]3C(=O)N[C@H]2C(=O)N[C@@H](C(=O)O)c2cc(O)cc(O)c2-c2cc3ccc2O)O[C@@H](CO)[C@H](O)[C@H]1O (stereo in doubt) [antibiotic L 17046]

MIC (S. aureus L 1524): 0.1 | MIC (S. epidermidis 785): 0.05 | MIC (S. aureus L 1526): 0.05 | MIC (S. epidermidis 1142): 0.05 | MIC (S. epidermidis 1372): 0.2 | MIC (S. epidermidis 835): 0.05 | MIC (S. aureus L 1096): 0.05 | MIC (S. aureus L 1097): 0.05 | MIC (S. epidermidis 1378): 0.05 | MIC ([3]; Inoculum: 10^6 cfu/ml): 0.2 µg/mL (≈ 0.167 µM) | MIC ([3]; in the presence of 30% bovine serum): 0.2 µg/mL | MIC ([3]; inoculum about 10^4 cfu/ml): 0.05 µg/mL (≈ 0.0417 µM) | solubility (Solubility; in ethyl alcohol and dimethylformamide): slightly soluble | solubility (Solubility; in water at a pH higher than 9 and aqueous methanol, ethanol and acetone): soluble | MIC [5]: 50 µg/mL (≈ 41.7 µM) | MIC [6]: 25 µg/mL (≈ 20.9 µM) | MIC [7]: > 100 µg/mL | MIC [8]: 0.0125 µg/mL (≈ 0.0104 µM) | MIC [9]: 0.025 µg/mL (≈ 0.0209 µM) | MIC [10]: 0.05 µg/mL (≈ 0.0417 µM) | MIC [11]: 0.05 µg/mL (≈ 0.0417 µM) | MIC [12]: 0.1 µg/mL (≈ 0.0834 µM)
Compound: N[C@H]1C(=O)N[C@@H]2Cc3ccc(c(Cl)c3)Oc3cc4cc(c3O)Oc3ccc(cc3Cl)[C@@H](O)[C@@H]3NC(=O)[C@H](NC(=O)[C@@H]4NC(=O)[C@@H](NC2=O)c2cc(O)cc(c2)Oc2cc1ccc2O)c1ccc(O)c(c1)-c1c(O)cc(O)cc1[C@@H](C(=O)O)NC3=O [deglucoteicoplanin]
activity against staphylococci (S. aureus, S. epidermidis) [2]: very active | ED50 (S. pyogenes): 0.95 mg/kg | activity against clinical isolate methicillin-resistant staphylococci [4]: very effective
